The values that follow come from paper PMC12414742, “Amphipathic Octenyl‐Alanine Modified Peptides Mediate Effective siRNA Delivery” (Journal of Peptide Science, 2025).

Where no end group is shown, it is not given here.

Data set [1] is described as follows: CD spectroscopy, secondary structure estimation. It counts as physicochemical. As to conditions: CD in MQ water, 100 μM peptide, 25°C, Reed's estimation; for proportion of alpha helical structure: 1-mm cuvette. On the procedure:
CD spectra were recorded on a Jasco J‐1500 CD spectrometer (Jasco, Japan) at 25°C at a concentration of 100 μM. Peptides were dissolved in MQ water and measured using 1‐mm pathlength quartz cuvette. The secondary structure estimates were calculated on the “Protein Secondary Structure Estimation” plugin in the Spectra Manager 2.13 software by using Reed's estimation.

A short description of data set [2]: DLS size, PDI and zeta potential of peptide/siRNA complexes. It counts as physicochemical. As for the experimental part: The physicochemical properties (nanoparticle size, polydispersity index [PDI], and zeta potential) of peptide/siLuc complexes were measured by DLS (dynamic light scattering) using the Zetasizer Nano ZS apparatus (Malvern Instruments, UK).
The size and zeta potential of peptide/siLuc particles were measured at MR30 for hPep1, hPep2, and Ctrl peptide. For hPep3, measurements were also taken at different MRs (5–35). The complexes were formulated in 50 μL at a 2 μM final siRNA concentration for size measurement. The average diameter was obtained from three technical replicates, and one measurement was set to five runs (run duration 8 s) in disposable ZEN0040 cuvettes (Malvern Instruments, UK).
To measure the zeta potential, the complexes were diluted eight times in 10 mM HEPES 7.4 buffer. The zeta potential was obtained from three technical measurements in disposable DTS1070 cuvettes (Malvern Instruments, UK) with the number of runs set to automatic. The results are shown as an average of three separate experiments (mean ± SEM). All measurements were performed at 22°C.

The next data set has as its system siRNA. In words: Heparin displacement assay (complex stability). In kind it is physicochemical. Particulars: peptide/siRNA complexes at MR30 in MQ water, heparin at different concentrations, 15 min RT, SYBR Gold fluorescence, n = 3 in duplicates. As for the experimental part: For the heparin displacement assay, peptide/siRNA complexes were formed in MQ water at MR30. Fifty microliters of complexes was then transferred to each well of a black 96‐well plate and mixed with 100 μL of 2X SYBR Gold dye (Thermo Fisher Scientific, USA), incubated, and then 50 μL of heparin (Sigma‐Aldrich, USA) solution with different concentrations was added. After 15 min at RT, the fluorescence was measured by Synergy Mx Microplate Reader (BioTek, USA) (ex = 495 nm, em = 537 nm) to determine the amount of accessible siRNA in the complexes. The data was normalized to the fluorescence of free siRNA (defined as 100%) and are expressed as a percentage of accessible siRNA. The results are shown as mean ± SEM of n = 3 in duplicates.

Another data set relates to bovine red blood cells. In words: Hemolysis (erythrocyte leakage) assay. It counts as cell-based. Particulars: peptide alone 10 μM, 2% RBCs in HBG pH 5.5, 37°C, 1 h, absorbance 450 nm, n = 3 in triplicates. On the procedure:
The hemolysis experiments were carried out with bovine red blood cells (RBCs) (Håtunalab, Sweden). The cells were washed three times with HBG 7.4 and then diluted to a final concentration of 2% RBCs in HBG with noted pH. Ten microliters of peptides was added to 190 μL of cells in PCR plates and shaken at 37°C for 1 h. Then the cells were spun down at 500 × g, and 100 μL of supernatant was transferred to transparent 96‐well tissue culture plates. The absorbance of released hemoglobin was measured at 450 nm on a plate reader (Tecan Sunrise, Switzerland). As a positive control, 10% Triton X‐100 was used, while HBG served as a negative control. The percentage of hemolysis was calculated by the formula: hemolysis (%) = [(AS − AN)/(AP − AN)] × 100, where AS is the absorbance for the sample, AP for positive control, and AN for negative control. The results are shown as mean ± SEM of n = 3, done in triplicates.

For data set [3] the following is noted: cited from earlier work. The source says: Given that the differences in the peptide hydrophobicity and amphipathicity come from the number of carbons introduced by the alanine and alkenyl‐alanine side chains: three carbons for Ctrl peptide, 13 and 17 for hPep1 an ...
Where [4] appears, read: DLS, peptide/siLuc complexes at MR30, 2 μM siRNA, 22°C, mean of n = 3.

On to LAKLAKAAAKLLKAAAKAL-NH2 [Ctrl], for which, in data set [1], the “proportion of alpha helical structure” value is “zero” and the random structure estimate was above 60%. Besides, the “NP size (hydrodynamic diameter)” value in data set [2] (setting [4]) is recorded as ~ 2000 nm. For the same substance, the “zeta potential of the complexes” value in data set [2] (all tested MRs (5-35)) is “stayed negative at all tested MRs”. Besides, the zeta potential in data set [2] (peptide/siLuc complexes at MR30, diluted eight times in 10 mM HEPES 7.4, 22°C, mean of n = 3) is recorded as −23.7 mV. For the same substance, the “stability of the NPs against heparin (siRNA release)” value with siRNA is “Ctrl < hPep1 < hPep2 < hPep3”. In addition, the “hemolytic (lytic) activity” value with bovine red blood cells is listed as “almost no activity”.
On to “H‐LAKLAKA{R8}AKLLKA{S5}AKAL‐NH2 [hPep1, C-terminally amidated amphipathic CPP with one octenyl- and one pentenyl-alanine]”, for which, in data set [1], the “proportion of alpha helical structure” value is reported as 15% and the random structure estimate is reported as above 60%. In addition, the PDI in data set [2] (setting [4]) was determined as 0.265. For the same substance, the “stability of the NPs against heparin (siRNA release)” value in the data set with siRNA is recorded as “Ctrl < hPep1 < hPep2 < hPep3”. In addition, the “order of hydrophobicity of the peptides” value in data set [3] is “hPep1 < hPep2 < hPep3”.
